Laboratory results as given in patent US20100297675A1, “SUBSTRATE AND METHOD FOR CULTURING BREAST CELLS” (priority 2008, published 2010).

Experiments:
[1] = test system: MCF-7 malignant breast cells; test: MCF-7 malignant cells cultured on 2D TCT culture surface, treated with inhibitor, confocal fluorescence imaging; type: cell-based; conditions: MCF-7 on TCT 2D surface; 4 μM on alternate days for 15 days; E-cadherin/DAPI stain; FIGS. 11A-C
Method: Differences in cellular morphology often contribute to differences in cellular function. To understand the difference of cellular functions between breast cells cultured in a porous substrate and on a 2D culture surface, 10,000 MCF-7 malignant cell were seeded and cultured in porous PDMS (as described in Example 1) and a TCT culture surface (tissue culture treated polystyrene, “TCT”, Coming Inc) under the same conditions. The cells were treated with 4 μM of PD98059 (MAPK inhibitor) and 4 μM of LY294002 (PI3K inhibitor) on alternate days for 15 days. […] In FIGS. 11A-C, the cells were stained for E-cadherin and counterstained with a DAPI nuclei stain. In FIG. 11A, untreated cells are shown at 14 days of culture. In FIG. 11B, cells treated with PD98059 are shown at 14 days of culture. In FIG. 11C, cells treated with LY294002 are shown at 14 days of culture. The green (E-cadherin) and blue (nuclei) stains cannot be seen in the black and white reproductions presented herein.

[2] = test system: MCF-7 malignant breast cells; test: MCF-7 malignant cells cultured in porous PDMS substrate, treated with inhibitor, confocal fluorescence imaging; type: cell-based; conditions: MCF-7 in porous PDMS, 4 μM on alternate days for 15 days, F-actin/DAPI stain
Source text: Porous polydimethylsiloxane (PDMS) substrates were generated by mixing a PDMS pre-polymer and a curing agent using the Sylgard 182 kit available from Dow Corning in a ratio of 10 to 1. The mixture was closely packed with sugar crystals of size ranging from 212-250 micrometers, which was then filled in a mold and cured at 100 degrees for one hour. The sugar in the cured polymer was washed out in an ultrasonic bath, forming porous PDMS substrates. The resulting porous PDMS was released from the mold and assembled into multi-well plate for cell culture. Malignant breast cells MCF-7 were seeded in wells having the porous PDMS substrates described in Example 1. 10,000 cells were seeded and cultured in EMEM cell culture medium with 10% Fetal Bovine Serum, 5% pen/strep, and 10 μg/ml of insulin. The medium was changed on alternate days. Following two weeks of culture, the cells were stained with Rhodamine phalloidin (F-actin staining) and DAPI nuclei counter stain and imaged with confocal fluorescence microscope as shown in FIG. 9. […] Differences in cellular morphology often contribute to differences in cellular function. […]

breast cancer cells = conditions: Matrigel 3D culture system; reported; cited from earlier work

In the case of `COc1cccc(-c2cc(=O)c3ccccc3o2)c1N` [PD98059], the “noticeable difference for the cells cultured on TCT surface (reversion of malignant phenotype or other change)” value [1] is reported as “failed to induce noticeable difference”, the colony size ([2]; FIGS. 12A-C) is reported as “significantly reduced the colony size” and the “reversion of malignant phenotype (mass structure to acini structure)” value ([2]; FIGS. 13A-C) is reported as “reversed malignant phenotype from mass structure to normal acini structure”. For the same molecule, the “reversal of malignant behaviors of breast cancer cells” value (breast cancer cells) was “reverse malignant behaviors of breast cancer cells to certain degrees”.
